According to patent US20240190838A1, “LZK-TARGETING DEGRADERS AND METHODS OF USE” (The U.S.A., as represented by the Secretary, Department of …, priority 2020, published 2024):

How the values were obtained:
[1] = biological target: T1, LZK (Homo sapiens, UniProt O43283); assay: LZK degradation (doxycycline-induced LZK expression, immunoblot) in CAL33 cells; assay type: cell-based; set-up: V5 (named only in the vector); expressed in transfected cells; host or cells: CAL33 HNSCC cells, lentiviral T-REx system, induced with doxycycline
T1 sequence (O43283 1-966): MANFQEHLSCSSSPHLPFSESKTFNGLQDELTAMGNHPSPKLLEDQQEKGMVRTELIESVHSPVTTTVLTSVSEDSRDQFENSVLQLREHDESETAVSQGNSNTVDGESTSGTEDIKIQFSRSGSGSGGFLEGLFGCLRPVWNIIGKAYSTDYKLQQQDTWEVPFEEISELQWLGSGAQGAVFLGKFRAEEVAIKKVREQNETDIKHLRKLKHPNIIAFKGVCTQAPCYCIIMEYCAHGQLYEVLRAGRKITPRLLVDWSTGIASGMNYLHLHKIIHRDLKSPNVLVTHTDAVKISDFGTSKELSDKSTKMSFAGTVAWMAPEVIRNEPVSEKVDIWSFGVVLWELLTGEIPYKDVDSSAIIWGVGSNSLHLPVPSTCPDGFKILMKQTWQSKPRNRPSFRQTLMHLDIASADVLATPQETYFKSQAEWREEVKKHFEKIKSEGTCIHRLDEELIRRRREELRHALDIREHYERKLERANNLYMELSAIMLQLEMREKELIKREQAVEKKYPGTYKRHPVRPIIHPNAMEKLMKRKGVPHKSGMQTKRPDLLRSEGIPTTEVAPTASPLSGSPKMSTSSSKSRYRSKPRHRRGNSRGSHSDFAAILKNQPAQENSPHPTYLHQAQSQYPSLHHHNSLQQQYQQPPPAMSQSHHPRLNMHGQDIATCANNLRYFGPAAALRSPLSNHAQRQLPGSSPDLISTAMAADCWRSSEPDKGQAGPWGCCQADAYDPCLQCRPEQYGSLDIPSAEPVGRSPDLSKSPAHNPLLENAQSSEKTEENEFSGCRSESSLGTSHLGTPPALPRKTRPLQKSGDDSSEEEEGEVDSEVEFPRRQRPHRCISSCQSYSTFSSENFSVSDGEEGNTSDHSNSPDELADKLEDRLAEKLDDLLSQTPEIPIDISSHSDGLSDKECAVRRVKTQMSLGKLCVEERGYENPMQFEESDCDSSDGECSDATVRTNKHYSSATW
Excerpt: The ViraPower HiPerform T-REx Gateway Expression System (Invitrogen) was used to generate cells with tetracycline-inducible expression of LZK. In brief, wild-type (WT) or drug-resistant mutant (Q240S) LZK (cloned into pLenti6.3/TO/V5-DEST vector) and pLenti3.3/TR (for tetracycline repressor expression) were transfected into 293FT cells using Lipofectamine 2000 to generate lentiviral stock. Cell lines were generated by antibiotic selection (blasticidin [Gibco] and geneticin [Gibco]). Doxycycline (Sigma-Aldrich) was used at 1 μg/mL to induce LZK expression.
Generally, cells were plated in six-well or 35-mm plates for 24 hours, after which doxycycline was added or treatment with specific inhibitor was administered using […] for 48 hours. After appropriate treatment time, cells were washed with ice-cold phosphate-buffered saline without Ca and Mg (Quality Biological) and then lysed on ice with RIPA buffer (50 mM NaCl, 1.0% o IGEPAL® CA-630, 0.5% o sodium deoxycholate, 0.10% SDS, 50 mM Tris, pH 8.0) (Sigma-Aldrich) supplemented with protease inhibitor tablet (Sigma-Aldrich) and phosphatase inhibitor cocktails 2 and 3 (Sigma-Aldrich) followed by centrifugation at 15,000 rpm for 10 minutes at 4° C. Protein concentrations were determined from the cell lysate by using 660 nm Protein Assay Reagent (Pierce). Cell extracts were denatured, subjected to SDS-PAGE, transferred to PVDF membranes (Bio-Rad) and blocked for 2 hours using 5 bovine serum albumin (BSA) in phosphate-buffered saline and 0.10 Tween® 20 (PBS-T). The membranes were incubated with the specific antibodies overnight in […] at 4° C. followed by a 1 hour incubation with the appropriate horseradish peroxidase-conjugated secondary antibodies and signal was detected by chemiluminescence (Thermo Fisher).

[2] = biological target: T1, LZK; assay: In vitro kinase assay (LZK phosphorylation of MKK7); assay type: biochemical; set-up: purchased Carna Biosciences 09-114; conditions: 100 μM ATP
Protocol: The assay was performed with 100 μM ATP at 37° C. for 30 minutes. Following the addition of 4× reducing SDS sample buffer, proteins were resolved by sodium dodecyl sulfate-polyacrylamide gel electrophoresis (SDS-PAGE) and immunoblot analysis was performed as stated previously.

Row | SMILES | LZK degradation ([1]; 1 μM for 48 hours) | rescue of degrader-mediated loss of LZK expression by MG132 ([1]; two-hour pretreatment MG132 (3 μM), degrader 1 μM 24 hours) | rescue of degrader-mediated loss of LZK expression by MLN4924 ([1]; two-hour pretreatment MLN4924 (500 nM), degrader 1 μM 24 hours) | in vitro phosphorylation of MKK7 [2]
1 | Cc1ncsc1-c1ccc([C@H](C)NC(=O)[C@@H]2C[C@@H](O)CN2C(=O)[C@@H](NC(=O)CCCCCCC(=O)N2CCC(c3cc(Nc4cc(C#N)ccn4)nc(N4CCC(F)(F)C4)c3)CC2)C(C)(C)C)cc1 [Compound 3] | degraded LZK | rescued by adding a proteasome inhibitor (MG132) | rescued with MLN4924 | –
2 | N#Cc1ccnc(Nc2cc(C3CCN(C4COC4)CC3)cc(N3CCC(F)(F)C3)n2)c1 [GNE-3511] | – | – | – | decreased in vitro phosphorylation of MKK7
